Test results as given in patent US20230219904A1 (SYNGENTA CROP PROTECTION AG, priority 2020, published 2023).

Experiments:
Format in all cases: in vivo
Settings in all cases: evaluated after 13 days
Setaria faberi (SETFA) [1] = experiment: Post-emergence herbicidal glasshouse test (Table B1)
Procedure, shortened: (§1)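 Damage is rated 13 days after treatment on a 1–5 scale (5 = 80–100%). Application, usually 500 g/h in acetone/water (50:50) with 0.5% Tween 20, is made one day post-sowing for pre-emergence or eight days for post-emergence; glasshouse at 24/16 °C, 14 h light, 65% humidity.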

[2] = test system: Ipomoea hederacea (IPOHE); experiment: as above
Procedure, shortened: as §1

[3] = test system: Abutilon theophrasti (ABUTH); experiment: as above
Procedure, shortened: as §1

[4] = test system: Amaranthus retoflexus (AMARE); experiment: as above
Procedure, shortened: as §1

[5] = test system: Echinochloa crus-galh (ECHCG); experiment: as above
Procedure, shortened: as §1

Setaria faberi (SETFA) [6] = experiment: Pre-emergence herbicidal glasshouse test (Table B1)
Procedure, shortened: as §1

[7] = test system: Ipomoea hederacea (IPOHE); experiment: as above
Procedure, shortened: as §1

[8] = test system: Abutilon theophrasti (ABUTH); experiment: as above
Procedure, shortened: as §1

[9] = test system: Amaranthus retoflexus (AMARE); experiment: as above
Procedure, shortened: as §1

[10] = test system: Echinochloa crus-galh (ECHCG); experiment: as above
Procedure, shortened: as §1

| SMILES | POST Application SETFA, percentage damage on five-point scale (Setaria faberi (SETFA) [1]; applied at 500 g/h) | POST Application IPOHE, percentage damage on five-point scale ([2]; applied at 500 g/h) | POST Application ABUTH, percentage damage on five-point scale ([3]; applied at 500 g/h) | POST Application AMARE, percentage damage on five-point scale ([4]; applied at 500 g/h) | POST Application ECHCG, percentage damage on five-point scale ([5]; applied at 500 g/h) | PRE Application SETFA, percentage damage on five-point scale (Setaria faberi (SETFA) [6]; applied at 500 g/h) | PRE Application IPOHE, percentage damage on five-point scale ([7]; applied) | PRE Application ABUTH, percentage damage on five-point scale ([8]; applied at 500 g/h) | PRE Application AMARE, percentage damage on five-point scale ([9]; applied at 500 g/h) | PRE Application ECHCG, percentage damage on five-point scale ([10]; applied at 500 g/h) | POST Application SETFA, percentage damage on five-point scale (Setaria faberi (SETFA) [1]; applied at 125 g/ha) | POST Application IPOHE, percentage damage on five-point scale ([2]; applied at 125 g/ha) | POST Application ABUTH, percentage damage on five-point scale ([3]; applied at 125 g/ha) | POST Application AMARE, percentage damage on five-point scale ([4]; applied at 125 g/ha) | POST Application ECHCG, percentage damage on five-point scale ([5]; applied at 125 g/ha) | PRE Application SETFA, percentage damage on five-point scale (Setaria faberi (SETFA) [6]; applied at 125 g/ha) | PRE Application IPOHE, percentage damage on five-point scale ([7]; applied at 125 g/ha) | PRE Application ABUTH, percentage damage on five-point scale ([8]; applied at 125 g/ha) | PRE Application AMARE, percentage damage on five-point scale ([9]; applied at 125 g/ha) | PRE Application ECHCG, percentage damage on five-point scale ([10]; applied at 125 g/ha) |
| --- | --- | --- | --- | --- | --- | --- | --- | --- | --- | --- | --- | --- | --- | --- | --- | --- | --- | --- | --- | --- |
| Cn1nnnc1NC(=O)c1ccc(OCC(F)(F)F)c(NC(=O)C2CC2)c1Cl [Compound 1.017] | 5 (5=80-100%) | 5 (5=80-100%) | 4 (4=60-79%) | 5 (5=80-100%) | 5 (5=80-100%) | 5 (5=80-100%) | 5 (5=80-100%) | 5 (5=80-100%) | 5 (5=80-100%) | 5 (5=80-100%) |  |  |  |  |  |  |  |  |  |  |
| Cc1cc(C(=O)Nc2c(OC(F)(F)F)ccc(C(=O)Nc3nnnn3C)c2Cl)no1 [Compound 1.011] | 4 (4=60-79%) | 5 (5=80-100%) | 5 (5=80-100%) | 5 (5=80-100%) | 5 (5=80-100%) | 1 (1=0-19%) | 4 (4=60-79%) | 4 (4=60-79%) | 5 (5=80-100%) | 1 (1=0-19%) |  |  |  |  |  |  |  |  |  |  |
| Cn1nnnc1NC(=O)c1ccc(OC(F)(F)F)c(NC(=O)C2CC2(F)F)c1Cl (stereo not shown) [Compound 1.032] | 5 (5=80-100%) | 5 (5=80-100%) | 5 (5=80-100%) | 5 (5=80-100%) | 5 (5=80-100%) | 5 (5=80-100%) | 3 (3=40-59%) | 5 (5=80-100%) | 5 (5=80-100%) | 5 (5=80-100%) |  |  |  |  |  |  |  |  |  |  |
| CCN(C(=O)C(C)F)c1c(OC(F)F)ccc(C(=O)Nc2nnnn2C)c1Cl (stereo not shown) [Compound 1.026] |  |  |  |  |  |  |  |  |  |  | 4 (4=60-79%) | 4 (4=60-79%) | 4 (4=60-79%) | 4 (4=60-79%) | 5 (5=80-100%) | 5 (5=80-100%) | 4 (4=60-79%) | 5 (5=80-100%) | 5 (5=80-100%) | 5 (5=80-100%) |
| CCn1nnnc1NC(=O)c1ccc(OC(F)(F)F)c(NC(=O)c2ccccc2OC)c1Cl [Compound 1.123] |  |  |  |  |  |  |  |  |  |  | 4 (4=60-79%) | 5 (5=80-100%) | 4 (4=60-79%) | 4 (4=60-79%) | 4 (4=60-79%) | 4 (4=60-79%) | 2 (2=20-39%) | 3 (3=40-59%) | 3 (3=40-59%) | 3 (3=40-59%) |
| CCC(=O)N(C)c1c(OC(F)F)ccc(C(=O)Nc2nnnn2C)c1Cl [Compound 1.024] |  |  |  |  |  |  |  |  |  |  | 4 (4=60-79%) | 4 (4=60-79%) | 4 (4=60-79%) | 3 (3=40-59%) | 4 (4=60-79%) | 4 (4=60-79%) | 4 (4=60-79%) | 5 (5=80-100%) | 5 (5=80-100%) | 4 (4=60-79%) |
| CCn1nnnc1NC(=O)c1ccc(OC(F)F)c(NC(=O)CC2CC2)c1Cl [Compound 1.131] | 4 (4=60-79%) | 5 (5=80-100%) | 5 (5=80-100%) | 5 (5=80-100%) | 5 (5=80-100%) | 1 (1=0-19%) | 1 (1=0-19%) | 5 (5=80-100%) | 5 (5=80-100%) | 3 (3=40-59%) |  |  |  |  |  |  |  |  |  |  |
| Cc1nnc(NC(=O)c2ccc(OC(F)(F)F)c(N3CCCCC3=O)c2Cl)o1 [Compound 2.004] | 5 (5=80-100%) | 5 (5=80-100%) | 5 (5=80-100%) | 5 (5=80-100%) | 5 (5=80-100%) | 5 (5=80-100%) | 1 (1=0-19%) | 4 (4=60-79%) | 5 (5=80-100%) | 5 (5=80-100%) |  |  |  |  |  |  |  |  |  |  |
| CNc1c(OC(F)(F)F)ccc(C(=O)Nc2nnnn2C)c1Cl [Compound 1.005] | 5 (5=80-100%) | 5 (5=80-100%) | 5 (5=80-100%) | 5 (5=80-100%) | 5 (5=80-100%) | 5 (5=80-100%) | 5 (5=80-100%) | 5 (5=80-100%) | 5 (5=80-100%) | 5 (5=80-100%) |  |  |  |  |  |  |  |  |  |  |
| Cn1nnnc1NC(=O)c1ccc(OC(F)F)c(NC(=O)C2CC2(F)F)c1Cl (stereo not shown) [Compound 1.035] |  |  |  |  |  |  |  |  |  |  | 4 (4=60-79%) | 4 (4=60-79%) | 4 (4=60-79%) | 4 (4=60-79%) | 4 (4=60-79%) | 4 (4=60-79%) | 3 (3=40-59%) | 5 (5=80-100%) | 5 (5=80-100%) | 3 (3=40-59%) |
